Test results taken from US20020054927A1, “Process for the extraction of an active principle from leaves of Olea Europaea to promote the synthesis of stress proteins, obtained active principle” (priority 2000, published 2002).

System: HSP 70
Assay: Production of stress protein HSP 70 (RNAm by RT-PCR, band intensity vs β-actine) in cutaneous cell cultures
Assay type: cell-based, human
Conditions: tested at 1.5 g/l
Method: 1st test with thermal treatment:
At J0, cutaneous cells, fibroblasts and/or keratinocytes are seeded.
At J4, 3% of active principle was added and after an incubation of 30 minutes thermal treatment is carried out for 1 hour at 39° C.
The positive specimen is treated for 1 hour at 44° C.
The total RNA is extracted. The RNA is reverse-transcripted and the complementary DNA is analyzed by using complementary oligonucleotides of a sequence coding the genes and proteins studied.
The RNAm of β-actine is analyzed for each experimental condition.
By image analysis, using for example the system sold under the name BIO-PROFIL, the band intensities are determined.
2nd test without thermal treatment:
At J3, 3% of active principle is added and left to incubate for 24 hours at 37° C.
At J4, at the end of this incubation, the cells are recovered.
The total RNA is extracted. The RNA is reverse-transcripted and the complementary DNA is analyzed by using complementary oligonucleotides of a sequence coding the genes and proteins used. The RNAm of p-actine is analyzed for each experimental condition.
Similarly to the above, by image analysis, the intensities of the bands are determined. […]
The results of the thermal treatments of the standard are indicated in the table in FIG. 1, taking as 100% the quantity of RNAm of HSP 70 after incubation at 37° C. of a standard specimen

SMILES	effect on the synthesis of HSP 70 on fibroblasts, result in words
C/C=C1/[C@H](O[C@@H]2O[C@H](CO)[C@@H](O)[C@H](O)[C@H]2O)OC=C(C(=O)OC)[C@H]1CC(=O)OCCc1ccc(O)c(O)c1 [Oleuropeine]	very active
OCCc1ccc(O)c(O)c1 [Dihydroxytyrosol]	very active
